Experimental data: patent US20230159546A1, “NOVEL SPIROPYRROLIDINE DERIVED ANTIVIRAL AGENTS” (Enanta Pharmaceuticals, Inc., priority 2021, published 2023)

Molecular target: SARS-CoV-2 3CL-protease (Severe acute respiratory syndrome coronavirus 2, UniProt P0DTD1)
Assay: SARS-CoV-2 3C-like (3CL) protease fluorescence assay (FRET)
Assay type: biochemical
Conditions: not given

SMILES | IC50
CCOC(=O)N1C[C@]2(C[C@H]1C#N)C(=O)Nc1ccccc12 [Example 67] | > 1000 nM
N#C[C@@H]1C[C@@]2(CN1C(=O)Oc1ccccc1)C(=O)Nc1ccccc12 [Example 71] | > 1000 nM

Same assay, conditions: recombinant SARS-CoV-2 3CL-protease 10 nM, 30 min preincubation at RT, duplicate; read-out: FRET IC50

SMILES | IC50
N#C[C@@H]1C[C@@]2(CN1C(=O)c1cc3ccccc3[nH]1)C(=O)Nc1ccccc12 [Example 54] | > 1000 nM
N#C[C@@H]1C[C@@]2(CN1S(=O)(=O)c1ccccc1)C(=O)Nc1ccccc12 [Example 55] | > 1000 nM
N#C[C@@H]1C[C@@]2(CN1S(=O)(=O)c1ccc(F)cc1)C(=O)Nc1ccccc12 [Example 56] | > 1000 nM
CC(C)NS(=O)(=O)N1C[C@]2(C[C@H]1C#N)C(=O)Nc1ccccc12 [Example 57] | > 1000 nM
N#C[C@@H]1C[C@@]2(CN1S(=O)(=O)NC1CC1)C(=O)Nc1ccccc12 [Example 58] | > 1000 nM
N#C[C@@H]1C[C@@]2(CN1S(=O)(=O)NC1CCC1)C(=O)Nc1ccccc12 [Example 59] | > 1000 nM
N#C[C@@H]1C[C@@]2(CN1S(=O)(=O)NC1CCCC1)C(=O)Nc1ccccc12 [Example 60] | > 1000 nM
N#C[C@@H]1C[C@@]2(CN1S(=O)(=O)NC1CCCCC1)C(=O)Nc1ccccc12 [Example 61] | > 1000 nM
N#C[C@@H]1C[C@@]2(CN1S(=O)(=O)Nc1ccc(F)cc1)C(=O)Nc1ccccc12 [Example 62] | > 1000 nM
N#C[C@@H]1C[C@@]2(CN1S(=O)(=O)NCc1nccs1)C(=O)Nc1ccccc12 [Example 63] | > 1000 nM
CC(C)CN1C[C@]2(C[C@H]1C#N)C(=O)Nc1ccccc12 [Example 64] | > 1000 nM
CC(C)CN1C[C@]2(C[C@@H]1C#N)C(=O)Nc1ccccc12 [Example 65] | > 1000 nM
N#C[C@@H]1C[C@@]2(CN1CC1CC1)C(=O)Nc1ccccc12 [Example 66] | > 1000 nM
CC(C)OC(=O)N1C[C@]2(C[C@H]1C#N)C(=O)Nc1ccccc12 [Example 68] | > 1000 nM
N#C[C@@H]1C[C@@]2(CN1C(=O)OC1CC1)C(=O)Nc1ccccc12 [Example 69] | > 1000 nM
N#C[C@@H]1C[C@@]2(CN1C(=O)OC1CCCC1)C(=O)Nc1ccccc12 [Example 70] | > 1000 nM
N#C[C@@H]1C[C@@]2(CN1C(=O)OCc1ccccc1)C(=O)Nc1ccccc12 [Example 72] | 100 to 1000 nM
N#C[C@@H]1C[C@@]2(CN1C(=O)C(=O)Nc1ccccc1)C(=O)Nc1ccccc12 [Example 73] | > 1000 nM
CC(C)(C(=O)NC1CCCCC1)C(=O)N1C[C@]2(C[C@H]1C#N)C(=O)Nc1ccccc12 [Example 74] | > 1000 nM
N#C[C@@H]1C[C@@]2(CN1C(=O)C1(C(=O)Nc3ccccc3)CC1)C(=O)Nc1ccccc12 [Example 75] | > 1000 nM
N#C[C@@H]1C[C@@]2(CN1S(=O)(=O)Nc1ccc3cccnc3c1)C(=O)Nc1ccccc12 [Example 76] | > 1000 nM
N#C[C@@H]1C[C@@]2(CN1C(=O)OC1CCCCC1)C(=O)Nc1ccccc12 [Example 77] | > 1000 nM
N#C[C@@H]1C[C@@]2(CN1C(=O)C(=O)NC1CC1)C(=O)Nc1ccccc12 [Example 78] | > 1000 nM
N#C[C@@H]1C[C@@]2(CN1C(=O)C(=O)NC1CCCCC1)C(=O)Nc1ccccc12 [Example 79] | 100 to 1000 nM
N#C[C@@H]1C[C@@]2(CN1C(=O)C(=O)NCc1ccccc1)C(=O)Nc1ccccc12 [Example 80] | 100 to 1000 nM

SMILES | IC50
N#C[C@@H]1C[C@@]2(CN1C(=O)C(=O)NCc1nccs1)C(=O)Nc1ccccc12 [Example 81] | > 1000 nM
CC(C)NC(=O)C(C)(C)C(=O)N1C[C@]2(C[C@H]1C#N)C(=O)Nc1ccccc12 [Example 82] | > 1000 nM
CC(C)(C(=O)NC1CC1)C(=O)N1C[C@]2(C[C@H]1C#N)C(=O)Nc1ccccc12 [Example 83] | > 1000 nM
CC(C)(C(=O)Nc1ccccc1)C(=O)N1C[C@]2(C[C@H]1C#N)C(=O)Nc1ccccc12 [Example 84] | > 1000 nM
N#C[C@@H]1C[C@@]2(CN1S(=O)(=O)Nc1ccccc1)C(=O)Nc1ccccc12 [Example 85] | > 1000 nM
N#C[C@@H]1C[C@@]2(CN1C(=O)OCc1nccs1)C(=O)Nc1ccccc12 [Example 86] | > 1000 nM
N#C[C@@H]1C[C@@]2(CN1C(=O)OCn1cccn1)C(=O)Nc1ccccc12 [Example 87] | > 1000 nM
CCNC(=O)C(=O)N1C[C@]2(C[C@H]1C#N)C(=O)Nc1ccccc12 [Example 88] | > 1000 nM
CC(C)NC(=O)C(=O)N1C[C@]2(C[C@H]1C#N)C(=O)Nc1ccccc12 [Example 89] | > 1000 nM
N#C[C@@H]1C[C@@]2(CN1C(=O)C(=O)NC1CCCC1)C(=O)Nc1ccccc12 [Example 90] | 100 to 1000 nM
N#C[C@@H]1C[C@@]2(CN1C(=O)C(=O)Nc1ccc3cccnc3c1)C(=O)Nc1ccccc12 [Example 91] | > 1000 nM
N#C[C@@H]1C[C@@]2(CN1C(=O)C(Cc1ccccc1)C(=O)C1CC1)C(=O)Nc1ccccc12 (some centres unmarked) [Example 92] | 100 to 1000 nM
N#C[C@@H]1C[C@@]2(CN1C(=O)C(Cc1ccccc1)C(=O)C1CCCCC1)C(=O)Nc1ccccc12 (some centres unmarked) [Example 93] | > 1000 nM
N#C[C@@H]1C[C@@]2(CN1C(=O)[C@H](Cc1ccccc1)C(=O)c1ccccc1)C(=O)Nc1ccccc12 [Example 94] | > 1000 nM
N#C[C@@H]1C[C@@]2(CN1C(=O)[C@@H](Cc1ccccc1)C(=O)c1ccccc1)C(=O)Nc1ccccc12 [Example 95] | > 1000 nM
CC(C)(C(=O)C1CC1)C(=O)N1C[C@]2(C[C@H]1C#N)C(=O)Nc1ccccc12 [Example 100] | > 1000 nM
CC(C)(C(=O)C1CCCCC1)C(=O)N1C[C@]2(C[C@H]1C#N)C(=O)Nc1ccccc12 [Example 101] | > 1000 nM
N#C[C@@H]1C[C@@]2(CN1C(=O)C1(C(=O)c3ccccc3)CC1)C(=O)Nc1ccccc12 [Example 102] | > 1000 nM
CC(C)(C(=O)c1ccccc1)C(=O)N1C[C@]2(C[C@H]1C#N)C(=O)Nc1ccccc12 [Example 111] | > 1000 nM
N#C[C@@H]1C[C@@]2(CN1C(=O)C(=O)OC1CCCC1)C(=O)Nc1ccccc12 [Example 112] | > 1000 nM
N#C[C@@H]1C[C@@]2(CN1C(=O)C(=O)OC1CCCCC1)C(=O)Nc1ccccc12 [Example 113] | 100 to 1000 nM
CC(C)NC(=O)[C@@H](Cc1ccccc1)C(=O)N1C[C@]2(C[C@H]1C#N)C(=O)Nc1ccccc12 [Example 114] | 100 to 1000 nM
CC(C)NC(=O)[C@H](Cc1ccccc1)C(=O)N1C[C@]2(C[C@H]1C#N)C(=O)Nc1ccccc12 [Example 115] | > 1000 nM
N#C[C@@H]1C[C@@]2(CN1C(=O)[C@H](Cc1ccccc1)C(=O)NC1CC1)C(=O)Nc1ccccc12 [Example 116] | 100 to 1000 nM
N#C[C@@H]1C[C@@]2(CN1C(=O)[C@@H](Cc1ccccc1)C(=O)NC1CC1)C(=O)Nc1ccccc12 [Example 117] | > 1000 nM

SMILES | IC50
N#C[C@@H]1C[C@@]2(CN1C(=O)[C@H](Cc1ccccc1)C(=O)NC1CCCCC1)C(=O)Nc1ccccc12 [Example 118] | 100 to 1000 nM
N#C[C@@H]1C[C@@]2(CN1C(=O)[C@@H](Cc1ccccc1)C(=O)NC1CCCCC1)C(=O)Nc1ccccc12 [Example 119] | > 1000 nM
N#C[C@@H]1C[C@@]2(CN1C(=O)[C@H](Cc1ccccc1)C(=O)Nc1ccccc1)C(=O)Nc1ccccc12 [Example 120] | 100 to 1000 nM
N#C[C@@H]1C[C@@]2(CN1C(=O)[C@@H](Cc1ccccc1)C(=O)Nc1ccccc1)C(=O)Nc1ccccc12 [Example 121] | > 1000 nM
CC(C)S(=O)(=O)N1C[C@]2(C[C@H]1C#N)C(=O)Nc1ccccc12 [Example 122] | > 1000 nM
CCOC(=O)C(=O)N1C[C@]2(C[C@H]1C#N)C(=O)Nc1ccccc12 [Example 123] | > 1000 nM
CC(C)OC(=O)C(=O)N1C[C@]2(C[C@H]1C#N)C(=O)Nc1ccccc12 [Example 124] | > 1000 nM
N#C[C@@H]1C[C@@]2(CN1C(=O)C(=O)OC1CC1)C(=O)Nc1ccccc12 [Example 125] | > 1000 nM
N#C[C@@H]1C[C@@]2(CN1C(=O)C(=O)OCc1ccccc1)C(=O)Nc1ccccc12 [Example 126] | > 1000 nM
N#C[C@@H]1C[C@@]2(CN1C(=O)C(=O)OCc1nccs1)C(=O)Nc1ccccc12 [Example 127] | > 1000 nM
N#C[C@@H]1C[C@@]2(CN1S(=O)(=O)C1CCCC1)C(=O)Nc1ccccc12 [Example 128] | > 1000 nM
N#C[C@@H]1C[C@@]2(CN1S(=O)(=O)C1CCCCC1)C(=O)Nc1ccccc12 [Example 129] | > 1000 nM
N#C[C@@H]1C[C@@]2(CN1C(=O)NCc1cc3ccccc3[nH]1)C(=O)Nc1ccccc12 [Example 130] | > 1000 nM
N#C[C@@H]1C[C@@]2(CN1C(=O)NCCc1cc3ccccc3[nH]1)C(=O)Nc1ccccc12 [Example 131] | > 1000 nM
CC(C)C(=O)NN1C[C@]2(C[C@H]1C#N)C(=O)Nc1ccccc12 [Example 139] | > 1000 nM
N#C[C@@H]1C[C@@]2(CN1NC(=O)C1CC1)C(=O)Nc1ccccc12 [Example 140] | > 1000 nM
N#C[C@@H]1C[C@@]2(CN1NC(=O)C1CCCCC1)C(=O)Nc1ccccc12 [Example 141] | > 1000 nM
N#C[C@@H]1C[C@@]2(CN1NC(=O)c1ccccc1)C(=O)Nc1ccccc12 [Example 142] | > 1000 nM
CC1(C)CCC(NC(=O)C(=O)N2C[C@]3(C[C@H]2C#N)C(=O)Nc2ccccc23)CC1 [Example 143] | > 1000 nM
N#C[C@@H]1C[C@@]2(CN1C(=O)C(=O)N[C@H]1CC[C@@H](NC(=O)OCc3ccccc3)CC1)C(=O)Nc1ccccc12 [Example 145] | > 1000 nM
N#C[C@@H]1C[C@@]2(CN1C(=O)C(=O)N[C@H]1CCC(F)(F)C1)C(=O)Nc1ccccc12 [Example 146] | 100 to 1000 nM
CC(C)(C)OC(=O)N[C@@H]1CCC[C@@H]1NC(=O)C(=O)N1C[C@]2(C[C@H]1C#N)C(=O)Nc1ccccc12 [Example 147] | 100 to 1000 nM
N#C[C@@H]1C[C@@]2(CN1C(=N)C1CC1)C(=O)Nc1ccccc12 [Example 148] | > 1000 nM
N#C[C@@H]1C[C@@]2(CN1C(=O)C(=O)N[C@H]1CC[C@H](C(F)(F)F)CC1)C(=O)Nc1ccccc12 [Example 149] | > 1000 nM
CC(C)(C)OC(=O)N[C@H]1CC[C@@H](NC(=O)C(=O)N2C[C@]3(C[C@H]2C#N)C(=O)Nc2ccccc23)CC1 [Example 150] | > 1000 nM
